Data from patent publication US20080032418A1, “Cell Free Assay Systems For Identifying A Substance Of Interest” (priority 2003, published 2008).

Legend:
[1] = biological target: T1, serotonin receptor 5HT2C with a C-terminal His tag (Rattus norvegicus, UniProt P08909); assay: immunoprecipitation binding assay (anti-MBP, protein A beads, imidazole elution, fluorescence); settings: receptor 0.2 μM, perylene 0.4 μM, overnight at 4° C.; FIGS. 5-7
T1 construct: made in house; host or cells: bacteria (E. coli is named as the preferred host for the MBP system)
T1 sequence (P08909 with tags, fused parts or gaps): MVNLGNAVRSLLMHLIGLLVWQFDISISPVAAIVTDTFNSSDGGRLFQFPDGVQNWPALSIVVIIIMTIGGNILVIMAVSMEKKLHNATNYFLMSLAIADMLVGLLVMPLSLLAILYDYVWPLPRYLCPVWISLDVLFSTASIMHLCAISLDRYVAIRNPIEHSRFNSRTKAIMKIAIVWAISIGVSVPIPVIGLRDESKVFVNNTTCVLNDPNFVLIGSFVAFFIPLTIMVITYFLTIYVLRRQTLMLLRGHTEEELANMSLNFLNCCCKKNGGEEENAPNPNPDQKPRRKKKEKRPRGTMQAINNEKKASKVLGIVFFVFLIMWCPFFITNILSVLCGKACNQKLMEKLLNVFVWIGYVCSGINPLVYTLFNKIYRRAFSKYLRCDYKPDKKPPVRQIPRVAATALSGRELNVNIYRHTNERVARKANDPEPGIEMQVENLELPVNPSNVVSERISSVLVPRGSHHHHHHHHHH
Method: In these experiments, the affinity purified receptor (0.2 μM), and either compound 1, or control glycine-perylene (0.4 μM), were combined, in a total volume of 0.1 ml, and incubated on a rocking platform overnight, at 4° C. Further controls were provided, by taking samples of the two perylene molecules and treating them in the absence of protein.
All washes were retained for fluorescence measurements.
Perylene molecules were eluted from the bead bound proteins using 0.5M imidazole. Fluorescence of all samples and washes was measured, using a spectrofluorometer, excitation at 480 nm, and emission scan at 500-650 nm. Peak fluorescence was detected at 533-535 nm.

[2] = tested on: any of the receptor molecules described in example 1; settings: 1.1 μM receptor, 2.5 μM compound 1, overnight at 4° C., Superose 6 gel filtration, excitation 485 nm, emission 535 nm
Method: This example describes the chelation of the compound of example 4 to any of the receptor molecules described in example 1 and purification of the receptor-perylene complexes by gel filtration chromatography.
The receptor was affinity purified, following standard methods, and 1.1 μM of the molecule was combined with 2.5 μM of compound 1, in a total volume of 0.5 ml. The materials were incubated on a rocking platform, overnight, at 4° C. The mixture was then loaded onto a 20 ml column of Superose 6 Prep gel filtration media, and washed with running buffer (20 mM Tris, pH 7.4, 150 mM NaCl, 0.05% maltoside/0.01% CHS), to remove any unbound perylene. A total of 60 separate, 0.5 ml fractions were collected. A portion of each fraction was loaded into 60 wells of a 96 well plate, and fluorescence was measured at an excitation of 485 nm, and emission of 535 nm. Since the fluorescence quantum yield of perylene bound to receptor differs from that of unbound perylene, fluorescence was also measured after dissociating receptor-perylene complexes by adding imidazole to a final concentration of 0.5M to each of the fractions. A portion of each column fraction was loaded onto denaturing polyacrylamide gel, separated by electrophoreses, transferred to PVDF membranes, and receptor protein containing fractions were identified, using anti-MBP antibodies.

## CCCCCCC(CCCCCC)N1C(=O)c2ccc3c4ccc5c6c(ccc(c7ccc(c2c37)C1=O)c64)C(=O)N(CCCCC(C(=O)[O-])N(CC(=O)[O-])CC(=O)O)C5=O.[Ni+2] (centres unmarked) [compound 1, N-(1-hexylheptyl)-N′-(nickel (II)-5-(1-carboxyl-1-(N-dicarboxylmethyl)pentyl))perylene-3,4,9,10-tetracarboxylic-diimide]
[1]
  binding to the receptor (fluorescence following overnight elution with 0.5M imidazole): bound to the receptor and required elution
[2]
  portion of the total perylene bound to receptor protein: roughly one-third
